From paper PMC4536990, “Efficacy of the antimicrobial peptide TP4 against Helicobacter pylori infection: in vitro membrane perturbation via micellization and in vivo suppression of host immune responses in a mouse model” (Oncotarget, 2015)
Each block holds one compound with its values, some of them ahead of it. Where a SMILES comes first, the peptide text is derived from it.

What was measured:
[1] = system: New Zealand white rabbits; assay: Eye irritation test in rabbits (OECD 405); format: in vivo; details: for Abnormality iris grade / Chemosis grade / Conjunctivae Redness grade / Corneal opacity grade: OECD 405 grading
Procedure: (§1) Figure 11 TP4 toxicity safety evaluations in New Zealand albino rabbits and C3H/HeN mice (A) Eye irritation test: Ocular appearances of controls, and rabbits treated with TP4 or SDS for 7 days. […] (B) Dermal toxicity: appearances of the skin of mice treated with TP4 at 48 hr post-exposure.
(§2) Oral toxicity: Acute oral toxicity was assessed in C3H/HeN mice with 6 animals per group, by single oral administration of TP4 (125 mg/kg). After dose administration, the animals were kept under observation for a minimum of 48 hr. The mortality rate and clinical signs were recorded. Sub-acute oral toxicity was assessed by administering 600 μg dose/day for 14 days. During dose administration, the animals were observed every day for any signs of toxicity. After the treatment period, the animals were kept under observation for 14 days. The morbidity, mortality, and other clinical signs were recorded and assessed. Dermal Toxicity was assessed by topical application of TP4 at 10 times the effective dose to skin at the dorsal side of mice. After administration, the animals were kept under observation for a minimum of 48 h. Clinical signs were noted if the animals were in the morbid stage or presented with any abnormalities. Eye irritation test in New Zealand white rabbits: Healthy young adult rabbits were used in the experiment. Eyes were treated with TP4, PBS (vehicle control), or 0.1% SDS (positive control). A repeated dose of 1 mg/kg was administered every day for 7 days. During the treatment period, the eyes were examined on days 1, 3, 5, and 7, and allowed to recover until day 14. Clinical signs were recorded during the test period, and grades were assigned for ocular reactions observed during each examination. All procedures, care, and handling of rabbits were approved by the laboratory animal ethics committee of National Taiwan Ocean University.

C3H/HeN mice = assay: Dermal toxicity; format: in vivo; details: 48 hr post-exposure, after residue removal; 125 mg/kg TP4 or 20% SDS; n=12 per group
Procedure: as §1, §2

H. pylori CI-HC-028 [2] = format: cell-based, Helicobacter pylori; details: CI-HC-028, 24 h
Procedure: (§3) H. pylori strains, American type cell cultures (ATCC) 43504, 51653, and 700392, and a clinical isolate CI-HC-028 (provided by Dr. Ming-Shiung Wu, Department of Internal Medicine, Gastrointestinal Hepatobilary Division, National Taiwan University Hospital, Taiwan) were used to determine the antimicrobial efficacy of TP4. Strains were cryopreserved at −80°C in brain heart infusion broth supplemented with 20% FBS. Bacteria were cultured under microaerobic conditions, as previously described. Briefly, bacteria were spread on brain heart infusion (BHI) agar plates supplemented with 10% (v/v) sheep blood, and plates were incubated at 37°C for 24 hr under a microaerobic atmosphere (Anaeropack-Anaero, Mitsubishi, Japan).
(§4) Frozen cultures were streaked onto BHI agar with 10% sheep blood, and incubated for 24 hr under microaerophilic conditions. H. pylori cells undergoing exponential growth were suspended in sterile phosphate-buffered saline (PBS), and adjusted to 0.05 OD using BHI broth; the resulting inoculum was dispensed onto a microtitre plate. Peptide TP4 was prepared at various concentrations (0.04 to 50 μg mL^−1) using PBS. Antibiotic resistant clinical isolate CI-HC-028 and three reference strains were used for susceptibility testing. All plates were incubated under microaerophilic conditions at 37°C overnight. The MIC was defined as the lowest concentration of the drug at which there was no visible growth. For quality control and comparative analyses, we examined the susceptibility of all four H. pylori strains to the antibiotics amoxicillin, clarithromycin, and metronidazole (Sigma Chemical Co., St. Louis, MO).

H. pylori 43504 = format: cell-based, Helicobacter pylori; details: 43504, 24 h
Procedure: as §3, §4

H. pylori 700392 = format: cell-based, Helicobacter pylori; details: 700392, 24 h
Procedure: as §3, §4

H. pylori 43629 = format: cell-based, Helicobacter pylori; details: 43629, 24 h
[3] = system: metronidazole- and clarithromycin-resistant H. pylori strains; assay: Synergy of TP4 with antibiotics, in vitro dose-OD fall kinetics; format: cell-based, Helicobacter pylori; details: TP4 plus antibiotic
Procedure: (§5) Animals were sacrificed at each passage, and the MIC of TP4, amoxicillin, metronidazole, and clarithromycin were recorded for 10 serial passages. Passage points in the curves are means ± SEM. (MICs: standard MIC value; MICp: passage-induced MIC). (B) In vitro dose-OD fall kinetics were examined for TP4 alone and in combination with amoxicillin, metronidazole, or clarithromycin. […] The data shown are means ± SEM of two independent experiments
Combination therapy often enhances antibiotic efficacy and mitigates the frequency at which drug resistance emerges. To determine the suitability of TP4 for combination therapy, we examined in vitro dose-OD fall kinetics of TP4 in combination with AMOX, CLRN, or METZ antibiotics; these three antibiotics are traditionally used as the first line of defense against H. pylori.

H. pylori = assay: Induction of drug resistance by sub-inhibitory passaging (in vitro / in vivo passage); format: cell-based, Helicobacter pylori; details: sub-inhibitory doses, 10 serial passages
Procedure: as §5
The drug resistance of bacteria to TP4 and clinical antibiotics was determined by in vitro culturing of H. pylori in sub-inhibitory concentrations of TP4 and antibiotics, followed by repeated in vivo passaging. H. pylori was administered to C3H/HeN mice and allowed to colonize the gut; subsequently pure colonies of H. pylori were isolated on EYE selective media. This step was repeated for 10 passages. During each passage, the MICs of TP4 and the conventional antibiotics were determined. All procedures, care, and handling of mice were approved by the laboratory animal ethics committee of National Taiwan Ocean University.

H. pylori CI-HC-028 [4] = assay: Time-dependent killing of multidrug resistant clinical isolate; format: cell-based, Helicobacter pylori; details: CI-HC-028, at MIC
Procedure: Control peptide and H. pylori alone were used as controls. The cultures were monitored for 24 h, and aliquots were taken at 1, 3, 6, 12, and 24 h for bacterial enumeration. The data are means ± SEM. […] Approximately, 1 × 10^5 cells were incubated for 1 h, and then incubated with the MIC of TP4, amoxicillin, metronidazole, or clarithromycin (AMOX, METZ, and CLRN, respectively). The cultures were monitored for 24 h, and aliquots taken at 1, 3, 6, 12, and 24 h to determine surviving c.f.u. The data are means ± SEM
Overnight cultures of H. pylori were scraped and adjusted to OD 0.05, and 1 ml/tube inocula were prepared with BHI broth. Solutions of TP4 or clinical antibiotics were prepared with concentrations corresponding to their respective MIC, and PBS was used as a control. The tubes were incubated without shaking at 37°C under microaerophilic conditions, and sample aliquots were taken at 0, 1, 3, 6, 12, and 24 hr. The samples were serially diluted, and appropriate dilutions were plated in triplicate onto blood agar plates for bacterial counts. The results were expressed as mean log (c.f.u. mL^−1) with standard error.

Structure (SMILES): CCCCCCCCCCCCOS(=O)(=O)[O-].[Na+] [SDS, reference compound]
Abnormality iris grade ([1]; Day 1): 0
Chemosis grade ([1]; Day 1): 1.5
Conjunctivae Redness grade ([1]; Day 1): 1
Corneal opacity grade ([1]; Day 1, rabbit eye, daily for 7 days (TP4 1 mg/kg; SDS 0.1%)): 1
Abnormality iris grade ([1]; Day 3): 0
Chemosis grade ([1]; Day 3): 1.5
Conjunctivae Redness grade ([1]; Day 3): 1
Corneal opacity grade ([1]; Day 3): 1
Abnormality iris grade ([1]; Day 5): 0
Chemosis grade ([1]; Day 5): 2
Conjunctivae Redness grade ([1]; Day 5): 1
Corneal opacity grade ([1]; Day 5): 1
Abnormality iris grade ([1]; Day 7): 0
Chemosis grade ([1]; Day 7): 2
Conjunctivae Redness grade ([1]; Day 7): 1
Corneal opacity grade ([1]; Day 7): 1
Abnormality iris grade ([1]; Recovery, Day 14): 0
Chemosis grade ([1]; Recovery, Day 14): 1.5
Conjunctivae Redness grade ([1]; Recovery, Day 14): 0.5
Corneal opacity grade ([1]; Recovery, Day 14): 0.5
ocular appearance ([1]; rabbits treated for 7 days, observed daily): severe lacrimation, swelling of the eyelids, and elevated blood vessels in conjunctivae
skin appearance, lesions (C3H/HeN mice): No obvious lesions

MIC (H. pylori CI-HC-028 [2]): > 12 µg/mL
MIC (H. pylori 43504): > 12 µg/mL
MIC (H. pylori 700392): > 12 µg/mL
MIC (H. pylori 43629): > 12 µg/mL
Structure (SMILES): CC(C)C[C@H](NC(=O)[C@@H](NC(=O)[C@H](CO)NC(=O)[C@H](CC(=O)O)NC(=O)[C@H](Cc1c[nH]c2ccccc12)NC(=O)[C@H](CC(=O)O)NC(=O)[C@@H](N)Cc1ccccc1)C(C)C)C(=O)N[C@@H](CCCCN)C(=O)NCC(=O)N[C@H](C(=O)N[C@@H](CCC(=O)O)C(=O)NCC(=O)N[C@@H](Cc1ccccc1)C(=O)N[C@H](C(=O)N[C@@H](CCCNC(=N)N)C(=O)NCC(=O)N[C@@H](Cc1ccc(O)cc1)C(=O)N[C@@H](Cc1ccccc1)C(N)=O)C(C)C)C(C)C [TP1] (H-FDWDSVLKGVEGFVRGYF-NH2)

MIC (H. pylori CI-HC-028 [2]): 8 to 12 µg/mL
MIC (H. pylori 43504): 8 to 12 µg/mL
MIC (H. pylori 700392): 8 to 12 µg/mL
MIC (H. pylori 43629): 8 to 12 µg/mL
Structure (SMILES): CC[C@H](C)[C@H](NC(=O)[C@H](CC(C)C)NC(=O)[C@H](CO)NC(=O)[C@H](Cc1c[nH]cn1)NC(=O)[C@@H](NC(=O)[C@H](Cc1c[nH]cn1)NC(=O)[C@H](CCCCN)NC(=O)CNC(=O)[C@@H](NC(=O)[C@H](CO)NC(=O)[C@H](Cc1ccccc1)NC(=O)[C@H](CC(C)C)NC(=O)CNC(=O)CNC(=O)[C@@H](NC(=O)[C@@H](NC(=O)[C@H](Cc1c[nH]cn1)NC(=O)[C@H](Cc1c[nH]cn1)NC(=O)[C@@H](NC(=O)[C@@H](N)Cc1ccccc1)[C@@H](C)CC)[C@@H](C)CC)[C@@H](C)CC)C(C)C)[C@@H](C)CC)C(=O)N[C@@H](Cc1c[nH]cn1)C(=O)NCC(=O)N[C@@H](Cc1c[nH]cn1)C(N)=O [TP3] (H-FIHHIIGGLFSVGKHIHSLIHGH-NH2)

MIC (H. pylori CI-HC-028 [2]): >12 µg/mL
MIC (H. pylori 43504): >12 µg/mL
MIC (H. pylori 700392): >12 µg/mL
MIC (H. pylori 43629): >12 µg/mL
Structure (SMILES): CC[C@H](C)[C@H](NC(=O)[C@H](CC(C)C)NC(=O)[C@H](CCC(=O)O)NC(=O)[C@H](CCC(N)=O)NC(=O)[C@H](CC(C)C)NC(=O)[C@@H](NC(=O)[C@H](CCCCN)NC(=O)[C@H](CCC(N)=O)NC(=O)[C@@H](NC(=O)[C@@H](NC(=O)[C@H](CCC(=O)O)NC(=O)CNC(=O)[C@H](CO)NC(=O)[C@@H](NC(=O)[C@H](CCC(N)=O)NC(=O)[C@H](CCCCN)NC(=O)CNC(=O)[C@H](CCC(N)=O)NC(=O)[C@H](CC(C)C)NC(=O)[C@@H](N)CCC(N)=O)C(C)C)C(C)C)C(C)C)C(C)C)C(=O)N[C@@H](CCC(N)=O)C(=O)N[C@@H](CO)C(=O)N[C@H](C(=O)N[C@@H](C)C(=O)N[C@@H](CCCCN)C(=O)N1CCC[C@H]1C(N)=O)C(C)C [TP5] (H-QLQGKQVSGEVVQKVLQELIQSVAKP-NH2)

Structure (SMILES): CC[C@H]1OC(=O)[C@H](C)[C@@H](O[C@H]2C[C@@](C)(OC)[C@@H](O)[C@H](C)O2)[C@H](C)[C@@H](O[C@@H]2O[C@H](C)C[C@H](N(C)C)[C@H]2O)[C@](C)(OC)C[C@@H](C)C(=O)[C@H](C)[C@@H](O)[C@]1(C)O [clarithromycin]
reduction of the MIC of the antibiotic in combination with TP4 [3]: one-half
drug resistance index MICp/MICs (H. pylori): gradually increased from passage 3 to the last passage
time taken to 90% reduction of c.f.u. (H. pylori CI-HC-028 [4]): > 24 h

Structure (SMILES): Cc1ncc([N+](=O)[O-])n1CCO [metronidazole]
reduction of the MIC of the antibiotic in combination with TP4 [3]: one-half
drug resistance index MICp/MICs (H. pylori): gradually increased from passage 3 to the last passage
course of cell count in time kill (H. pylori CI-HC-028 [4]; 24 h): initial decrease in cell count, but gradually lost activity
